Measurements: patent US7601850B2, “Phenyl-thiophene type vitamin D receptor modulators” (Eli Lilly and Company, priority 2002, dated 2009)
Like-named read-outs stand apart in the source and are kept apart here.

What was measured:
KERtr cells = assay: Keratinocyte proliferation assay (BrdU incorporation); format: cell-based; settings: Homo sapiens, Keratinocyte, 72 h, KERtr human skin keratinocytes, 72 hr treatment, read-out: Kera. Prolif. IC50
Description: 6. The keratinocyte proliferation assay is described in the “Assay” section of the Description, infra.
5. The Keratinocyte Proliferation Assay
This Assay is indicative for the treatment of psoriasis.
(5) The Keratinocyte Proliferation Assay:
KERtr cells (Human skin keratinocyte transformed with a retrovirus vector, obtained from ATCC) were plated in 96-well flat-bottomed plates (3000 cells/well) in 100 µl keratinocyte serum free medium supplemented with bovine pituitary extract in the absence of EGF (Life Technologies, Rockville, Md.) and incubated at 37° C. for two days. The cells were treated with various concentrations of VDR ligands (ten-fold serial dilution from 10,000 nM to 0.1 nM in triplicate), dissolved in 100 µl keratinocyte serum free medium supplemented with bovine pituitary extract in the absence of EGF and incubated at 37° C. for 72 hr. […] Potency values (IC50) values were determined as the concentration (nM) of compound that elicited a half-maximal response.

rat osteocalcin promoter = assay: OCN (osteocalcin) promoter assay in RG-15 (ROS 17/2.8) cells; format: cell-based
Description: 4. The OCN Promoter test is described in the “Assay” section of the Description, infra.
3. The OCN (Osteocalcin) Promoter Assay
The OCN Promoter Assay is an indicator and marker for osteoporosis. Desired assay results are EC50 less than or equal to 325 nM. Preferred assay results are less than 50 nM.
(3) Materials and Method for The OCN Promoter Assay:
The activation of osteocalcin by VDR ligands was evaluated in a rat osteoblast-like cell line RG-15 (ROS 17/2.8) stably expressing rat osteocalcin promoter fused with luciferase reporter gene. The stable cell lines were established as reported before (Activation of Osteocalcin Transcription involves interaction of protein kinase A- and Protein kinase C-dependent pathways. Boguslawski, G., Hale, L. V., Yu, X.-P., Miles, R. R., Onyia, J. E., Santerre R. F., Chandrasekhar, S. J Biol. Chem. 275, 999-1006, 2000). Confluent RG-15 cells maintained in DMEM/F-12 medium (3:1) containing 5% FBS, 300 µg/ml G418 and at 37° C. under 5% CO2/95% air atmosphere were trypsinized (0.25% trypsin) and plated into white opaque 96-well cell culture plates (25000 cells/well). After 24 hr, cells (in DMEM/F-12 medium+2% FBS) were treated with various concentrations of compounds, dissolved in DMSO. The final DMSO concentration remained at 0.01% (v/v). After 48 hr treatment, the medium was removed, cells were lysed with 50 µl of lysis buffer (From Luciferase reporter assay system, Roche Diagnostics, Indianapolis, Ind.) and assayed for luciferase activity using the Luciferase Reporter Gene Assay kit from Boehringer Mannheim as per manufacturer's specifications.

With CCC(CC)(c1ccc(OCC(O)C(C)(C)C)c(C)c1)c1cc(C)c(-c2n[nH]c(=S)o2)s1 (stereo not shown) [Ex. 173] the IC50 (KERtr cells) was 478 nM.
CCC(CC)(c1ccc(OCC(O)C(C)(C)C)c(C)c1)c1cc(C)c(CS(C)(=O)=O)s1 (single isomer, unassigned) [Ex. 11B] gave an IC50 (KERtr cells) of 216 nM.
Molecule CCC(CC)(c1ccc(OCC(O)C(C)(C)C)c(C)c1)c1cc(C)c(C(=O)N(C)C)s1 (stereo not shown) [Ex. 4] has an IC50 (KERtr cells) of 122 nM and an EC50 (rat osteocalcin promoter; Rattus norvegicus) of 147 nM.
In the case of CCC(CC)(c1ccc(CCC(O)C(C)(C)C)c(C)c1)c1cc(C)c(S(=O)(=O)NCC(=O)O)s1 (stereo not shown) [Ex. 179, (5-{1-Ethyl-1-[4-(3-hydroxy-4,4-dimethyl-pentyl)-3-methyl-phenyl]-propyl}-3-methyl-thiophene-2-sulfonylamino)-acetic acid], the IC50 (KERtr cells) is reported as 221 nM and the EC50 (rat osteocalcin promoter; Rattus norvegicus) is reported as 27.9 nM.
For CCC(CC)(c1ccc(OCC(O)C(C)(C)C)c(C)c1)c1cc(C)c(C(=O)OC)s1 (stereo not shown) [Ex. 6A], the IC50 (KERtr cells) was 439 nM.
In the case of CCC(CC)(c1ccc(OCC(=O)C(C)(C)C)c(C)c1)c1cc(C)c(S(=O)(=O)N(C)CCC(=O)O)s1 [Ex. 145], the IC50 (KERtr cells) is reported as 702 nM and the EC50 (rat osteocalcin promoter; Rattus norvegicus) is reported as 222 nM.
In the case of CCC(CC)(c1ccc(OCC(O)C(C)(C)C)c(C)c1)c1cc(C)c(S(=O)(=O)NC(C)=O)s1 (stereo not shown) [Ex. 158, 5-{1-Ethyl-1-[4-(2-hydroxy-3,3-dimethyl-butoxy)-3-methyl-phenyl]-propyl}-3-methyl-thiophene-2-sulfonic acid acetyl-amide], the IC50 (KERtr cells) is reported as 500 nM and the EC50 (rat osteocalcin promoter; Rattus norvegicus) is reported as 85 nM.
For CCC(CC)(c1ccc(CCC(=O)O)c(C)c1)c1cc(C)c(CCC(O)C(C)(C)C)s1 (stereo not shown) [Ex. 29], the IC50 (KERtr cells) was 4.6 nM and the EC50 (rat osteocalcin promoter; Rattus norvegicus) was 8.65 nM.
With CCC(CC)(c1ccc(OCC(O)C(C)(C)C)c(C)c1)c1cc(C)c(S(=O)(=O)NCCC(=O)O)s1 (stereo not shown) [Ex. 142] the IC50 (KERtr cells) was 300 nM.
In the case of CCC(CC)(c1ccc(OCS(C)(=O)=O)c(C)c1)c1cc(C)c(CCC(O)C(C)(C)C)s1 (single isomer, unassigned) [Ex. 15A], the IC50 (KERtr cells) is reported as 76 nM.
With CCC(CC)(c1ccc(OCC(O)C(C)(C)C)c(C)c1)c1cc(C)c(COCC(=O)O)s1 (stereo not shown) [Ex. 124, 2-(5-{1-ethyl-1-[4-(2-hydroxy-3,3-dimethyl-butoxy)-3-methyl-phenyl]-propyl}-3-methyl-thiophen-2-yl-methoxy)acetic acid] the IC50 (KERtr cells) was 216 nM and the EC50 (rat osteocalcin promoter; Rattus norvegicus) was 101 nM.
CCC(CC)(c1ccc(OS(C)(=O)=O)c(C)c1)c1cc(C)c(CC[C@@H](O)C(C)(C)C)s1 [Ex. 18] gave an IC50 (KERtr cells) of 24.5 nM and an EC50 (rat osteocalcin promoter; Rattus norvegicus) of 11.2 nM.
For CCC(=O)NS(=O)(=O)c1sc(C(CC)(CC)c2ccc(OCC(O)C(C)(C)C)c(C)c2)cc1C (stereo not shown) [Ex. 159, 5-{1-Ethyl-1-[4-(2-hydroxy-3,3-dimethyl-butoxy)-3-methyl-phenyl]-propyl}-3-methyl-thiophene-2-sulfonic acid propionyl-amide], the IC50 (KERtr cells) was 234 nM and the EC50 (rat osteocalcin promoter; Rattus norvegicus) was 89.7 nM.
With CCC(CC)(c1ccc(OCC(O)C(C)(C)C)c(C)c1)c1cc(C)c(C(=O)N[C@H](C)C(=O)OC)s1 (single isomer, unassigned) [Ex. 66, D-2-[(5-{1-Ethyl-1-[4-(2-hydroxy-3,3-dimethyl-butoxy)-3-methyl-phenyl]-propyl}-3-methyl-thiophene-2-carbonyl)-amino]-propionic acid methyl ester] the IC50 (KERtr cells) was 277 nM and the EC50 (rat osteocalcin promoter) was 28.4 nM.
Molecule CCC(CC)(c1ccc(OCC(O)C(C)(C)C)c(C)c1)c1ccc(C(=O)O)s1 (single isomer, unassigned) [Ex. 89, 3′-[4-(2-hydroxy-3,3-dimethylbutoxy)-3-methylphenyl]-3′-[5-carboxy-thiophen-2-yl]pentane] has an IC50 (KERtr cells) of 105 nM and an EC50 (rat osteocalcin promoter; Rattus norvegicus) of 314 nM.
CCC(CC)(c1ccc(OCC(O)C(C)(C)C)c(C)c1)c1cc(C)c(C(=O)N2CCC[C@H]2C(=O)OC)s1 (single isomer, unassigned) [Ex. 72, L-1-(5-{1-Ethyl-1-[4-(2-hydroxy-3,3-dimethyl-butoxy)-3-methyl-phenyl]-propyl}-3-methyl-thiophene-2-carbonyl)pyrrolidine-2-carboxylic acid methyl ester] showed an EC50 (rat osteocalcin promoter) of 219 nM.
CCC(CC)(c1ccc(OCC(O)C(C)(C)C)c(C)c1)c1cc(C)c(C(=O)N[C@H](C)C(=O)OC)s1 (single isomer, unassigned) [Ex. 56, D-2-[(5-{1-Ethyl-1-[4-(2-hydroxy-3,3-dimethyl-butoxy)-3-methyl-phenyl]-propyl}-3-methyl-thiophene-2-carbonyl)-amino]-propionic acid methyl ester] gave an EC50 (rat osteocalcin promoter) of 164 nM.
CCC(CC)(c1ccc(CCC(O)C(C)(C)C)c(C)c1)c1cc(C)c(C(=O)NCC(=O)O)s1 (stereo not shown) [Ex. 177, [(5-{1-Ethyl-1-[4-(3-hydroxy-4,4-dimethyl-pentyl)-3-methyl-phenyl]-propyl}-3-methyl-thiophene-2-carbonyl)-amino]-acetic acid] gave an IC50 (KERtr cells) of 81.3 nM and an EC50 (rat osteocalcin promoter; Rattus norvegicus) of 46 nM.
CCc1cc(C(CC)(CC)c2ccc(C(=O)O)s2)ccc1OCC(C)(O)C(C)(C)C (stereo not shown) [Ex. 107, 3′-[4-(2-hydroxy-2,3,3-trimethylbutoxy)-3-ethylphenyl]-3′-[5-carboxy-thiophen-2-yl]pentane] was tested, and the EC50 (rat osteocalcin promoter; Rattus norvegicus) was 42.3 nM.
For CCC(CC)(c1ccc(OC[S+](C)[O-])c(C)c1)c1cc(C)c(CC[C@@H](O)C(C)(C)C)s1 (stereo partly shown) [Ex. 16], the IC50 (KERtr cells) was 257 nM and the EC50 (rat osteocalcin promoter; Rattus norvegicus) was 31 nM.
In the case of CCC(CC)(c1ccc(OCC(O)C(C)(C)C)c(C)c1)c1cc(C)c(CN(CC(=O)O)C(C)=O)s1 (stereo not shown) [Ex. 130, 2-[N-acetyl-(5-{1-ethyl-1-[4-(2-hydroxy-3,3-dimethyl-butoxy)-3-methyl-phenyl]-propyl}-3-methyl-thiophen-2-ylmethyl)-amino]-acetic acid], the EC50 (rat osteocalcin promoter; Rattus norvegicus) is reported as 49.7 nM.
Work on CCC(CC)(c1ccc(OCC(O)C(C)(C)C)c(C)c1)c1cc(C)c(C(=O)NCC(=O)OC)s1 (stereo not shown) [Ex. 46, 2-[5-{1-Ethyl-1-{4-(2-hydroxy-3,3-dimethyl-butyoxy)-3-methyl-phenyl-propyl}-3-methyl-thiophene-2-carbonyl)-amino]-acetic acid methyl ester] yielded an EC50 (rat osteocalcin promoter; Rattus norvegicus) of 43.6 nM.
Molecule CCC(CC)(c1ccc(OCC(O)C(C)(C)C)c(C)c1)c1cc(C)c(-c2n[nH]c(=O)o2)s1 (single isomer, unassigned) [Ex. 171] has an EC50 (rat osteocalcin promoter; Rattus norvegicus) of 92.6 nM.
In the case of CCC(CC)(c1ccc(OCC(O)C(C)(C)C)c(C)c1)c1cc(C)c(C(=O)NCC(=O)O)s1 (single isomer, unassigned) [Ex. 48], the IC50 (KERtr cells) is reported as 71.5 nM.
For CCC(CC)(c1ccc(CCC(O)C(C)(C)C)c(C)c1)c1cc(C)c(C(=O)OC)s1 (stereo not shown) [Ex. 174, 5-{1-Ethyl-1-[4-(3-hydroxy-4,4-dimethyl-pentyl)-3-methyl-phenyl]-propyl}-3-methyl-thiophene-2-carboxylic acid methyl ester], the EC50 (rat osteocalcin promoter; Rattus norvegicus) was 172 nM.
For CCC(CC)(c1ccc(OCC(=O)C(C)(C)C)c(C)c1)c1cc(C)c(S(=O)(=O)NC(=O)C(C)C)s1 [Ex. 164, 5-{1-[4-(3,3-Dimethyl-2-oxo-butoxy)-3-methyl-phenyl]-1-ethyl-propyl}-3-methyl-thiophene-2-sulfonic acid isobutyryl-amide], the EC50 (rat osteocalcin promoter; Rattus norvegicus) was 150 nM.
CCC(CC)(c1ccc(OCC(=S)C(C)(C)C)c(C)c1)c1cc(C)c(S(=O)(=O)N[C@H](C)C(=O)O)s1 [Ex. 147] showed an EC50 (rat osteocalcin promoter; Rattus norvegicus) of 128 nM.
Work on CCC(CC)(c1ccc(OCC(O)C(C)(C)C)c(C)c1)c1cc(C)c(CO)s1 (single isomer, unassigned) [Ex. 126] yielded an EC50 (rat osteocalcin promoter; Rattus norvegicus) of 111 nM.
In the case of CCC(CC)(c1ccc(CCC(=O)C(C)(C)C)c(C)c1)c1cc(C)c(S(=O)(=O)NCC(=O)O)s1 [Ex. 182], the EC50 (rat osteocalcin promoter; Rattus norvegicus) is reported as 231 nM.
CCC(CC)(c1ccc(OCC(O)C(C)(C)C)c(C)c1)c1cc(C)c(C(=O)N(C)CC(=O)O)s1 (single isomer, unassigned) [Ex. 122, N-methyl-2-[(5-{1-ethyl-1-[4-(2-hydroxy-3,3-dimethyl-butoxy)-3-methyl-phenyl]-propyl}-3-methyl-thiophene-2-carbonyl)-methylamino]-acetic acid] showed an EC50 (rat osteocalcin promoter; Rattus norvegicus) of 67.5 nM.
CCC(CC)(c1ccc(C(=O)OC)c(C)c1)c1cc(C)c(CCC(O)C(C)(C)C)s1 (stereo not shown) [Ex. 21] gave an EC50 (rat osteocalcin promoter; Rattus norvegicus) of 140 nM.
CCc1cc(C(CC)(CC)c2ccc(S(=O)(=O)NCC(=O)OC)s2)ccc1OCC(O)C(C)(C)C (stereo not shown) [Ex. 154] showed an EC50 (rat osteocalcin promoter; Rattus norvegicus) of 20.5 nM.
In the case of CCOC(=O)CCc1ccc(C(CC)(CC)c2cc(C)c(CCC(O)C(C)(C)C)s2)cc1C (single isomer, unassigned) [Ex. 28], the EC50 (rat osteocalcin promoter; Rattus norvegicus) is reported as 0.76 nM.
CCC(CC)(c1ccc(C(=O)NCC(=O)OC)c(C)c1)c1cc(C)c(CCC(O)C(C)(C)C)s1 (stereo not shown) [Ex. 24] showed an EC50 (rat osteocalcin promoter; Rattus norvegicus) of 4.7 nM.
